Patent US20070117743A1, “New antitumoral compounds” (priority 2003, published 2007)
Like-named read-outs stand apart in the source and are kept apart here. *1 amine or outer side, *2 acyl side, *3 side chain or, on linkers, in order; H or OH if unused. Where a SMILES comes first, the peptide text is derived from it. Bridges are numbered along the chain shown (N, C = ends). [ ]: non-standard residue; d: D form. The star is where a group is joined. X3 = CN(C)C(=NCCC[C@H](N[*:1])C(=O)[*:2])N(C)c1ccccc1; X2 = CN(C)C(=NCCC[C@H](N[*:1])C(=O)[*:2])N1CCCC1; X1 = CN(C)C(=NCCC[C@H](N[*:1])C(=O)[*:2])N(C)C; d(aIle) = CC[C@H](C)[C@@H](N)C(=O)O; d(aThr) = C[C@@H](O)[C@@H](N)C(=O)O; Hexanoyl(5-Me) = CC(C)CCCC(=O)*; Orn = NCCC[C@H](N)C(=O)O; Dhb = C/C=C(\N)C(=O)O

Tests used:
Assay type in all cases: cell-based, human
[1] = tested on: A-549; test: SRB colorimetric assay of cell growth and viability, A-549; conditions: 48 hours exposure; for GI50: read-out: GI50 A-549; for CC50: read-out: LC50 A-549
From the text: (§1) The finality of this assay is to interrupt the growth of a “in vitro” tumor cell culture by means a continued exhibition of the cells to the sample to be testing.
(§2) This form of the assay employs 96 well cell culture microplates of 9 mm diameter (Faircloth, 1988; Mosmann, 1983). Most of the cell lines are obtained from American Type Culture Collection (ATCC) derived from different human cancer types.
(§3) Cells are maintained in RPMI 1640 10% FBS, supplemented with 0.1 g/l penicillin and 0.1 g/l streptomycin sulfate and then incubated at 37° C., 5% CO2 and 98% humidity. For the experiments, cells were harvested from subconfluent cultures using trypsin and resuspended in fresh medium before plating.
(§4) Cells are seeded in 96 well microtiter plates, at 5×10^3 cells per well in aliquots of 195 μL medium, and they are allowed to attach to the plate surface by growing in drug free medium for 18 hours. Afterward, samples are added in aliquots of 5 μL in a ranging from 10 to 10^−8 μg/mL, dissolved in DMSO:EtOH:PBS (0.5:0.5:99). After 48 hours exposure, the antitumor effect are measured by the SRB methodology: cells are fixed by adding 50 μL of cold 50% (wt/vol) trichloroacetic acid (TCA) and incubating for 60 minutes at 4° C. Plates are washed with deionized water and dried. One hundred μL of SRB solution (0.4% wt/vol in 1% acetic acid) is added to each microtiter well and incubated for 10 minutes at room temperature. Unbound SRB is removed by washing with 1% acetic acid. Plates are air dried and bound stain is solubilized with Tris buffer. Optical densities are read on a automated spectrophotometric plate reader at a single wavelength of 490 nm.
(§5) The values for mean+/− SD of data from triplicate wells are calculated. Some parameters for cellular responses can be calculated: GI=growth inhibition, TGI=total growth inhibition (cytostatic effect) and LC=cell killing (cytotoxic effect).

[2] = tested on: LoVo-Dox; test: SRB colorimetric assay of cell growth and viability, LoVo-Dox; conditions: 48 hours exposure; for CC50: read-out: LC50 LOVO-DOX
From the text: as §1
A colorimetric type of assay, using sulforhodamine B (SRB) reaction has been adapted for a quantitative measurement of cell growth and viability [following the technique described by Philip Skehan, et al. (1990), New colorimetric cytotoxicity assay for anticancer drug screening, J. Natl. Cancer Inst., 82:1107-1112].
as §2, §3, §4, §5

[3] = tested on: DU-145; test: SRB colorimetric assay of cell growth and viability, DU-145; conditions: 48 hours exposure
From the text: as §1, §2, §3, §4, §5

[4] = tested on: LoVo; test: SRB colorimetric assay of cell growth and viability, LoVo; conditions: 48 hours exposure; for CC50: read-out: LC50 LOVO
From the text: as §1, §2, §3, §4, §5

[5] = tested on: HeLa-APL; test: SRB colorimetric assay of cell growth and viability, HeLa-APL; conditions: 48 hours exposure; for CC50: read-out: LC50 HELA-APL
From the text: as §1, §2, §3, §4, §5

[6] = tested on: PANC-1; test: SRB colorimetric assay of cell growth and viability, PANC-1; conditions: 48 hours exposure; for CC50: read-out: LC50 PANC-1
From the text: as §1, §2, §3, §4, §5

[7] = tested on: HeLa; test: SRB colorimetric assay of cell growth and viability, HeLa; conditions: 48 hours exposure; for CC50: read-out: LC50 HELA
From the text: as §1, §2, §3, §4, §5

[8] = tested on: IGROV-ET; test: SRB colorimetric assay of cell growth and viability, IGROV-ET; conditions: 48 hours exposure; for CC50: read-out: LC50 IGROV-ET
From the text: as §1, §2, §3, §4, §5

[9] = tested on: K-562; test: SRB colorimetric assay of cell growth and viability, K-562; conditions: 48 hours exposure; for CC50: read-out: LC50 K-562
From the text: as §1, §2, §3, §4, §5

[10] = tested on: HT-29; test: SRB colorimetric assay of cell growth and viability, HT-29; conditions: 48 hours exposure; for GI50: read-out: GI50 HT-29; for CC50: read-out: LC50 HT-29
From the text: as §1, §2, §3, §4, §5

[11] = tested on: IGROV-1; test: SRB colorimetric assay of cell growth and viability, IGROV-1; conditions: 48 hours exposure
From the text: as §1, §2, §3, §4, §5

[12] = tested on: SK-MEL-28; test: SRB colorimetric assay of cell growth and viability, SK-MEL-28; conditions: 48 hours exposure; for CC50: read-out: LC50 MEL-28
From the text: as §1, §2, §3, §4, §5

Row | Structure (SMILES) | TGI A-549 [1] [Molar] | GI50 [1] [µM] | CC50 [1] [µM] | GI50 [2] [µM] | TGI LOVO-DOX [2] [Molar] | CC50 [2] [µM] | GI50 [3] [µM] | LC50 (concentration causing 50% net cell kill) [3] [µM] | TGI DU-145 [3] [Molar] | GI50 [4] [µM] | TGI LOVO [4] [Molar] | CC50 [4] [µM] | GI50 [5] [µM] | TGI HELA-APL [5] [Molar] | CC50 [5] [µM] | TGI HT-29 [10] [Molar] | GI50 [10] [µM] | CC50 [10] [µM] | TGI A-549 ([1]; SRB) [Molar] | TGI HT-29 ([10]; SRB) [Molar] | also measured
1 | C/C=C1\NC(=O)[C@H](Cc2ccccc2)NC(=O)[C@@H](C(C)C)NC(=O)[C@@H]([C@@H](C)CC)NC(=O)[C@H](NC(=O)[C@H](NC(=O)[C@H](CCCN)NC(=O)[C@H]2CCCN2C(=O)[C@H](NC(=O)[C@@H](NC(=O)[C@@H](NC(=O)[C@@H](Cc2ccccc2)NC(=O)CCCC(C)C)[C@@H](C)O)C(C)C)C(C)C)[C@@H](C)CC)[C@@H](C)OC(=O)[C@H](C(C)C)NC1=O [Compound 36, [D-Phe^13]-KF] | 5.14E−08 | 0.00481 | 0.99 | 0.3 | 9.63E−07 | 2.15 | 0.266 | 2.49 | 6.75E−07 | 0.136 | 9.63E−07 | 2.44 | 0.0819 | 6.55E−06 | 6.55 | 1.21E−06 | 0.398 | 2.84 | – | – | GI50 [6]: 0.00662 µM; TGI PANC-1 [6]: 2.73E−08 Molar; CC50 [6]: 0.976 µM; GI50 [7]: 0.00786 µM; TGI HELA [7]: 9.50E−08 Molar; CC50 [7]: 0.701 µM; GI50 [8]: 0.852 µM; TGI IGROV-ET [8]: 1.74E−06 Molar; CC50 [8]: 3.55 µM; GI50 [9]: 0.42 µM; TGI K-562 [9]: 1.25E−06 Molar; CC50 [9]: 2.9 µM; GI50 [11]: 0.144 µM; LC50 (concentration causing 50% net cell killing) [11]: 2.5 µM; TGI IGROV [11]: 9.90E−07 Molar; GI50 [12]: 0.154 µM; TGI MEL-28 [12]: 7.21E−07 Molar; CC50 [12]: 2.2 µM
2 | C/C=C1\NC(=O)[C@H](Cc2ccccc2)NC(=O)[C@@H](C(C)C)NC(=O)[C@@H]([C@@H](C)CC)NC(=O)[C@H](NC(=O)[C@H](NC(=O)[C@H](CCCN)NC(=O)[C@H]2CCCN2C(=O)[C@H](NC(=O)[C@@H](NC(=O)[C@H](C)NC(=O)CCCC(C)C)C(C)C)C(C)C)[C@@H](C)CC)[C@@H](C)OC(=O)[C@H](C(C)C)NC1=O [Compound 52, [Ala^12, noD-Val^13]-KF] ({Hexanoyl(5-Me)}-AV[dV][dP][Orn][d(aIle)][d(aThr)][d(aIle)][dV]F[Dhb]V; ester 7-C) | 7.41E−06 | 7.41 | 7.41 | 7.41 | 7.41E−06 | 7.41 | 7.41 | 7.41 | 7.41E−06 | 7.41 | 7.41E−06 | 7.41 | 0.0179 | 7.41E−06 | 7.41 | 7.41E−06 | 7.41 | 7.41 | – | – | GI50 [6]: 6.64 µM; TGI PANC-1 [6]: 7.41E−06 Molar; CC50 [6]: 7.41 µM; GI50 [7]: 6.18 µM; TGI HELA [7]: 7.41E−06 Molar; CC50 [7]: 7.41 µM; GI50 [8]: 3.67 µM; TGI IGROV-ET [8]: 7.41E−06 Molar; CC50 [8]: 7.41 µM; GI50 [9]: 7.41 µM; TGI K-562 [9]: 7.41E−06 Molar; CC50 [9]: 7.41 µM; GI50 [11]: 7.41 µM; LC50 (concentration causing 50% net cell killing) [11]: 7.41 µM; TGI IGROV [11]: 7.41E−06 Molar; GI50 [12]: 7.41 µM; TGI MEL-28 [12]: 7.41E−06 Molar; CC50 [12]: 7.41 µM
3 | C/C=C1\NC(=O)[C@H](Cc2ccccc2)NC(=O)[C@@H](C(C)C)NC(=O)[C@@H]([C@@H](C)CC)NC(=O)[C@H](NC(=O)[C@H](NC(=O)[C@H](CCCN=C(N(C)C)N(C)C)NC(=O)[C@H]2CCCN2C(=O)[C@H](NC(=O)[C@@H](NC(=O)[C@@H](NC(=O)[C@H](NC(=O)CCCC(C)C)C(C)C)[C@@H](C)O)C(C)C)C(C)C)[C@@H](C)CC)[C@@H](C)OC(=O)[C@H](C(C)C)NC1=O [Compound 89, [N(Me)2,N′(Me)2-Arg^8]-Kahalalide F] ({Hexanoyl(5-Me)}-[dV]TV[dV][dP][X1][d(aIle)][d(aThr)][d(aIle)][dV]F[Dhb]V; ester 8-C) | – | – | – | – | – | – | – | – | – | – | – | – | – | – | – | – | – | – | 4.44E−07 | 3.17E−07 | GI50 ([1]; SRB): 0.317 µM; CC50 ([1]; SRB): 0.635 µM; GI50 ([10]; SRB): 0.0635 µM; CC50 ([10]; SRB): 0.571 µM
4 | C/C=C1\NC(=O)[C@H](Cc2ccccc2)NC(=O)[C@@H](C(C)C)NC(=O)[C@@H]([C@@H](C)CC)NC(=O)[C@H](NC(=O)[C@H](NC(=O)[C@H](CCCN=C(N(C)C)N2CCCC2)NC(=O)[C@H]2CCCN2C(=O)[C@H](NC(=O)[C@@H](NC(=O)[C@@H](NC(=O)[C@H](NC(=O)CCCC(C)C)C(C)C)[C@@H](C)O)C(C)C)C(C)C)[C@@H](C)CC)[C@@H](C)OC(=O)[C@H](C(C)C)NC1=O [Compound 91, [N(CH2)4,N′(Me)2-Arg^8]-Kahalalide F] ({Hexanoyl(5-Me)}-[dV]TV[dV][dP][X2][d(aIle)][d(aThr)][d(aIle)][dV]F[Dhb]V; ester 8-C) | – | – | – | – | – | – | – | – | – | – | – | – | – | – | – | – | – | – | 4.37E−07 | 3.12E−07 | GI50 ([1]; SRB): 0.312 µM; CC50 ([1]; SRB): 0.624 µM; GI50 ([10]; SRB): 0.0624 µM; CC50 ([10]; SRB): 0.562 µM
5 | C/C=C1\NC(=O)[C@H](Cc2ccccc2)NC(=O)[C@@H](C(C)C)NC(=O)[C@@H]([C@@H](C)CC)NC(=O)[C@H](NC(=O)[C@H](NC(=O)[C@H](CCCN=C(N(C)C)N(C)c2ccccc2)NC(=O)[C@H]2CCCN2C(=O)[C@H](NC(=O)[C@@H](NC(=O)[C@@H](NC(=O)[C@H](NC(=O)CCCC(C)C)C(C)C)[C@@H](C)O)C(C)C)C(C)C)[C@@H](C)CC)[C@@H](C)OC(=O)[C@H](C(C)C)NC1=O [Compound 90, [N(Me,Ph),N′(ME)2-Arg^8]-Kahalalide F] ({Hexanoyl(5-Me)}-[dV]TV[dV][dP][X3][d(aIle)][d(aThr)][d(aIle)][dV]F[Dhb]V; ester 8-C) | – | – | – | – | – | – | – | – | – | – | – | – | – | – | – | – | – | – | 4.27E−07 | 3.05E−07 | –
6 | C/C=C1\NC(=O)[C@H](Cc2ccccc2)NC(=O)[C@@H](C(C)C)NC(=O)[C@@H]([C@@H](C)CC)NC(=O)[C@H](NC(=O)[C@H](NC(=O)[C@H](CCCN)NC(=O)[C@H]2CCCN2C(=O)[C@H](NC(=O)[C@@H](NC(=O)[C@@H](NC(=O)[C@H](NC(=O)c2ccc3c(c2)OCO3)C(C)C)[C@@H](C)O)C(C)C)C(C)C)[C@@H](C)CC)[C@@H](C)OC(=O)[C@H](C(C)C)NC1=O [Compound 23, [Pipe^14]-KF] | 1.98E−06 | 0.661 | 4.62 | – | – | – | – | – | – | – | – | – | – | – | – | 3.30E−07 | 0.132 | 0.528 | – | – | –
